Square brackets hold non-standard residues; d marks the D form. Peptide text beside a SMILES is read from it. * marks the point of attachment. Fluorescein(5-NHCOCH2) = O=C(C*)Nc1ccc2c(c1)C(=O)OC21c2ccc(O)cc2Oc2cc(O)ccc21; pS = N[C@@H](COP(=O)(O)O)C(=O)O; Sar = CNCC(=O)O

In one test the target is T1, CBP KIX wild type (Mus musculus, UniProt P45481).
T1 construct: made in house; host or cells: E. coli BL21(DE3) pArg
T1 sequence (P45481 586-665 limits assumed): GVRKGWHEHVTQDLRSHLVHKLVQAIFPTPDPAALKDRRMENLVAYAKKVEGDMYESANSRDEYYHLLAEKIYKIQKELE
Kind of test: Equilibrium fluorescence polarization, wild type CBP KIX. In kind it is binding. The following applies: 25° C.
For `CC[C@H](C)[C@H](NC(=O)[C@H](Cc1ccc(O)cc1)NC(=O)[C@H](Cc1ccccc1)NC(=O)[C@H](Cc1ccccc1)NC(=O)[C@H](COP(=O)(O)O)NC(=O)[C@H](CC(C)C)NC(=O)[C@H](CCCNC(=N)N)NC(=O)[C@H](CCCNC(=N)N)NC(=O)[C@@H](NC(=O)[C@@H]1CCCN1C(=O)[C@H](C)NC(=O)[C@H](CC(=O)O)NC(=O)[C@H](CC(=O)O)NC(=O)CNC(=O)[C@@H]1CCCN1C(=O)[C@H](Cc1ccc(O)cc1)NC(=O)[C@@H](NC(=O)[C@@H]1CCCN1C(=O)[C@H](CCC(N)=O)NC(=O)[C@H](CO)NC(=O)[C@H](C)NC(=O)CN)[C@@H](C)O)C(C)C)C(=O)N[C@@H](CC(C)C)C(=O)N[C@@H](CC(C)C)C(=O)N[C@@H](CC(=O)O)C(=O)N[C@@H](CC(C)C)C(=O)N[C@@H](Cc1ccc(O)cc1)C(=O)N[C@@H](CC(C)C)C(=O)N[C@@H](CC(=O)O)C(=O)N[C@@H](C)C(=O)N1CCC[C@H]1C(=O)NCC(=O)N[C@H](C(=O)N[C@@H](CSCC(=O)Nc1ccc2c(c1)C(=O)OC21c2ccc(O)cc2Oc2cc(O)ccc21)C(N)=O)C(C)C` [P2A] (H-GASQPTYPGDDAPVRRL[pS]FFYILLDLYLDAPGVC(Fluorescein(5-NHCOCH2))-NH2), the Kd stood at 870 ± 40 nM. The same measure, in the same setting: then `CC[C@H](C)[C@H](NC(=O)[C@H](Cc1ccc(O)cc1)NC(=O)[C@H](Cc1ccccc1)NC(=O)[C@H](Cc1ccccc1)NC(=O)[C@H](COP(=O)(O)O)NC(=O)[C@H](CC(C)C)NC(=O)[C@H](CCCNC(=N)N)NC(=O)[C@H](CCCNC(=N)N)NC(=O)[C@@H](NC(=O)[C@@H]1CCCN1C(=O)[C@H](C)NC(=O)[C@H](CC(=O)O)NC(=O)[C@H](CC(=O)O)NC(=O)CNC(=O)[C@@H]1CCCN1C(=O)[C@H](Cc1ccc(O)cc1)NC(=O)[C@@H](NC(=O)[C@@H]1CCCN1C(=O)[C@H](CCC(N)=O)NC(=O)[C@H](CO)NC(=O)CN(C)C(=O)CN)[C@@H](C)O)C(C)C)C(=O)N[C@@H](CC(C)C)C(=O)N[C@@H](CC(C)C)C(=O)N[C@@H](CC(=O)O)C(=O)N[C@@H](CC(C)C)C(=O)N[C@@H](Cc1ccc(O)cc1)C(=O)N[C@@H](CC(C)C)C(=O)N[C@@H](CC(=O)O)C(=O)N[C@@H](C)C(=O)N1CCC[C@H]1C(=O)NCC(=O)N[C@H](C(=O)N[C@@H](CSCC(=O)Nc1ccc2c(c1)C(=O)OC21c2ccc(O)cc2Oc2cc(O)ccc21)C(N)=O)C(C)C` [P2Z] (H-G[Sar]SQPTYPGDDAPVRRL[pS]FFYILLDLYLDAPGVC(Fluorescein(5-NHCOCH2))-NH2), with 830 ± 80 nM; and `CC[C@H](C)[C@H](NC(=O)[C@H](Cc1ccc(O)cc1)NC(=O)[C@H](Cc1ccccc1)NC(=O)[C@H](Cc1ccccc1)NC(=O)[C@H](COP(=O)(O)O)NC(=O)[C@H](CC(C)C)NC(=O)[C@H](CCCNC(=N)N)NC(=O)[C@H](CCCNC(=N)N)NC(=O)[C@@H](NC(=O)[C@@H]1CCCN1C(=O)[C@H](C)NC(=O)[C@H](CC(=O)O)NC(=O)[C@H](CC(=O)O)NC(=O)CNC(=O)[C@@H]1CCCN1C(=O)[C@H](Cc1ccc(O)cc1)NC(=O)[C@@H](NC(=O)[C@H](C)NC(=O)[C@H](CCC(N)=O)NC(=O)[C@H](CO)NC(=O)[C@@H]1CCCN1C(=O)CN)[C@@H](C)O)C(C)C)C(=O)N[C@@H](CC(C)C)C(=O)N[C@@H](CC(C)C)C(=O)N[C@@H](CC(=O)O)C(=O)N[C@@H](CC(C)C)C(=O)N[C@@H](Cc1ccc(O)cc1)C(=O)N[C@@H](CC(C)C)C(=O)N[C@@H](CC(=O)O)C(=O)N[C@@H](C)C(=O)N1CCC[C@H]1C(=O)NCC(=O)N[C@H](C(=O)N[C@@H](CSCC(=O)Nc1ccc2c(c1)C(=O)OC21c2ccc(O)cc2Oc2cc(O)ccc21)C(N)=O)C(C)C` [P5A] (H-GPSQATYPGDDAPVRRL[pS]FFYILLDLYLDAPGVC(Fluorescein(5-NHCOCH2))-NH2), with 1020 ± 90 nM; and `CC[C@H](C)[C@H](NC(=O)[C@H](Cc1ccc(O)cc1)NC(=O)[C@H](Cc1ccccc1)NC(=O)[C@H](Cc1ccccc1)NC(=O)[C@H](COP(=O)(O)O)NC(=O)[C@H](CC(C)C)NC(=O)[C@H](CCCNC(=N)N)NC(=O)[C@H](CCCNC(=N)N)NC(=O)[C@@H](NC(=O)[C@@H]1CCCN1C(=O)[C@H](C)NC(=O)[C@H](CC(=O)O)NC(=O)[C@H](CC(=O)O)NC(=O)CNC(=O)[C@@H]1CCCN1C(=O)[C@H](Cc1ccc(O)cc1)NC(=O)[C@@H](NC(=O)CN(C)C(=O)[C@H](CCC(N)=O)NC(=O)[C@H](CO)NC(=O)[C@@H]1CCCN1C(=O)CN)[C@@H](C)O)C(C)C)C(=O)N[C@@H](CC(C)C)C(=O)N[C@@H](CC(C)C)C(=O)N[C@@H](CC(=O)O)C(=O)N[C@@H](CC(C)C)C(=O)N[C@@H](Cc1ccc(O)cc1)C(=O)N[C@@H](CC(C)C)C(=O)N[C@@H](CC(=O)O)C(=O)N[C@@H](C)C(=O)N1CCC[C@H]1C(=O)NCC(=O)N[C@H](C(=O)N[C@@H](CSCC(=O)Nc1ccc2c(c1)C(=O)OC21c2ccc(O)cc2Oc2cc(O)ccc21)C(N)=O)C(C)C` [P5Z] (H-GPSQ[Sar]TYPGDDAPVRRL[pS]FFYILLDLYLDAPGVC(Fluorescein(5-NHCOCH2))-NH2), with 800 ± 30 nM. Same read-out and setting: then `CC[C@H](C)[C@H](NC(=O)[C@H](Cc1ccc(O)cc1)NC(=O)[C@H](Cc1ccccc1)NC(=O)[C@H](Cc1ccccc1)NC(=O)[C@H](COP(=O)(O)O)NC(=O)[C@H](CC(C)C)NC(=O)[C@H](CCCNC(=N)N)NC(=O)[C@H](CCCNC(=N)N)NC(=O)[C@@H](NC(=O)[C@@H]1CCCN1C(=O)[C@H](C)NC(=O)[C@H](CC(=O)O)NC(=O)[C@H](CC(=O)O)NC(=O)CNC(=O)[C@H](C)NC(=O)[C@H](Cc1ccc(O)cc1)NC(=O)[C@@H](NC(=O)[C@@H]1CCCN1C(=O)[C@H](CCC(N)=O)NC(=O)[C@H](CO)NC(=O)[C@@H]1CCCN1C(=O)CN)[C@@H](C)O)C(C)C)C(=O)N[C@@H](CC(C)C)C(=O)N[C@@H](CC(C)C)C(=O)N[C@@H](CC(=O)O)C(=O)N[C@@H](CC(C)C)C(=O)N[C@@H](Cc1ccc(O)cc1)C(=O)N[C@@H](CC(C)C)C(=O)N[C@@H](CC(=O)O)C(=O)N[C@@H](C)C(=O)N1CCC[C@H]1C(=O)NCC(=O)N[C@H](C(=O)N[C@@H](CSCC(=O)Nc1ccc2c(c1)C(=O)OC21c2ccc(O)cc2Oc2cc(O)ccc21)C(N)=O)C(C)C` [P8A] (H-GPSQPTYAGDDAPVRRL[pS]FFYILLDLYLDAPGVC(Fluorescein(5-NHCOCH2))-NH2), with 1070 ± 80 nM; and `CC[C@H](C)[C@H](NC(=O)[C@H](Cc1ccc(O)cc1)NC(=O)[C@H](Cc1ccccc1)NC(=O)[C@H](Cc1ccccc1)NC(=O)[C@H](COP(=O)(O)O)NC(=O)[C@H](CC(C)C)NC(=O)[C@H](CCCNC(=N)N)NC(=O)[C@H](CCCNC(=N)N)NC(=O)[C@@H](NC(=O)[C@@H]1CCCN1C(=O)[C@H](C)NC(=O)[C@H](CC(=O)O)NC(=O)[C@H](CC(=O)O)NC(=O)CNC(=O)CN(C)C(=O)[C@H](Cc1ccc(O)cc1)NC(=O)[C@@H](NC(=O)[C@@H]1CCCN1C(=O)[C@H](CCC(N)=O)NC(=O)[C@H](CO)NC(=O)[C@@H]1CCCN1C(=O)CN)[C@@H](C)O)C(C)C)C(=O)N[C@@H](CC(C)C)C(=O)N[C@@H](CC(C)C)C(=O)N[C@@H](CC(=O)O)C(=O)N[C@@H](CC(C)C)C(=O)N[C@@H](Cc1ccc(O)cc1)C(=O)N[C@@H](CC(C)C)C(=O)N[C@@H](CC(=O)O)C(=O)N[C@@H](C)C(=O)N1CCC[C@H]1C(=O)NCC(=O)N[C@H](C(=O)N[C@@H](CSCC(=O)Nc1ccc2c(c1)C(=O)OC21c2ccc(O)cc2Oc2cc(O)ccc21)C(N)=O)C(C)C` [P8Z] (H-GPSQPTY[Sar]GDDAPVRRL[pS]FFYILLDLYLDAPGVC(Fluorescein(5-NHCOCH2))-NH2), with 780 ± 50 nM; and `CC[C@H](C)[C@H](NC(=O)[C@H](Cc1ccc(O)cc1)NC(=O)[C@H](Cc1ccccc1)NC(=O)[C@H](Cc1ccccc1)NC(=O)[C@H](COP(=O)(O)O)NC(=O)[C@H](CC(C)C)NC(=O)[C@H](CCCNC(=N)N)NC(=O)[C@H](CCCNC(=N)N)NC(=O)[C@@H](NC(=O)[C@@H]1CCCN1C(=O)[C@H](C)NC(=O)[C@H](CC(=O)O)NC(=O)[C@H](CC(=O)O)NC(=O)CNC(=O)[C@@H]1CCCN1C(=O)[C@H](Cc1ccc(O)cc1)NC(=O)[C@@H](NC(=O)[C@@H]1CCCN1C(=O)[C@H](CCC(N)=O)NC(=O)[C@H](CO)NC(=O)[C@@H]1CCCN1C(=O)CN)[C@@H](C)O)C(C)C)C(=O)N[C@@H](CC(C)C)C(=O)N[C@@H](CC(C)C)C(=O)N[C@@H](CC(=O)O)C(=O)N[C@@H](CC(C)C)C(=O)N[C@@H](C)C(=O)N[C@@H](CC(C)C)C(=O)N[C@@H](CC(=O)O)C(=O)N[C@@H](C)C(=O)N1CCC[C@H]1C(=O)NCC(=O)N[C@H](C(=O)N[C@@H](CSCC(=O)Nc1ccc2c(c1)C(=O)OC21c2ccc(O)cc2Oc2cc(O)ccc21)C(N)=O)C(C)C` [Y27A] (H-GPSQPTYPGDDAPVRRL[pS]FFYILLDLALDAPGVC(Fluorescein(5-NHCOCH2))-NH2), with 3090 ± 180 nM.

For a further test, the target named is Bcl-2 (Homo sapiens, UniProt P10415). Kind of test: Bcl-2 binding by fluorescence emission of fluorescein-labeled peptide. The conditions noted are these: read-out: Kd for binding to Bcl-2, 4° C., PBS.
Chain of Bcl-2 (P10415 1-205): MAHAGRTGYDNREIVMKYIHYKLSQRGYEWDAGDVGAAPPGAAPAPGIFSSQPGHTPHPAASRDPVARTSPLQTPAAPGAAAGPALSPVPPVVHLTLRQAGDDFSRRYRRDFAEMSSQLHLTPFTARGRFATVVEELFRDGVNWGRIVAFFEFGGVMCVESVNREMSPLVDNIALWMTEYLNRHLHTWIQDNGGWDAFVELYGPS
For the molecule `CC[C@H](C)[C@H](NC(=O)[C@H](CCC(=O)O)NC(=O)[C@H](CC(=O)O)NC(=O)CNC(=O)[C@H](Cc1ccccc1)NC(=O)[C@H](Cc1ccc(O)cc1)NC(=O)[C@H](CCCNC(=N)N)NC(=O)[C@H](CC(C)C)NC(=O)[C@H](CC(C)C)NC(=O)[C@H](CCCNC(=N)N)NC(=O)CNC(=O)[C@@H](NC(=O)[C@H](Cc1ccccc1)NC(=O)[C@H](CCCNC(=N)N)NC(=O)[C@@H](NC(=O)[C@H](CC(C)C)NC(=O)[C@H](CC(=O)O)NC(=O)[C@H](CCC(=O)O)NC(=O)[C@@H](NC(=O)[C@@H]1CCCN1C(=O)[C@H](C)NC(=O)[C@H](CC(=O)O)NC(=O)[C@H](CC(=O)O)NC(=O)CNC(=O)[C@@H]1CCCN1C(=O)[C@H](Cc1ccc(O)cc1)NC(=O)[C@@H](NC(=O)[C@@H]1CCCN1C(=O)[C@H](CCC(N)=O)NC(=O)[C@H](CO)NC(=O)[C@@H]1CCCN1C(=O)CN)[C@@H](C)O)C(C)C)[C@@H](C)CC)C(C)C)C(=O)N[C@@H](CC(N)=O)C(=O)N[C@@H](CCCNC(=N)N)C(=O)N[C@@H](CCCNC(=N)N)C(N)=O` [p4100] (H-GPSQPTYPGDDAPVEDLIRFVGRLLRYFGDEINRR-NH2), the Kd came out at 401 ± 40 nM.

A word on the Kd: it is the concentration at which binding is half-saturated.
